Data taken from patent US20170334877A1, “REVAPRAZAN HYDROCHLORIDE POLYMORPHS AND PREPARATION METHOD THEREFOR” (JIANGSU TASLY DIYI PHARMACEUTICAL CO., LTD., priority 2014, published 2017).
Where a name gives a salt, the structure may show the parent alone.

What was measured:
Assay type in all cases: physicochemical
[1] = Light illumination test (intense light, 4500±500 Lx); conditions: for Stability (conclusion in words): intense light illumination, no obvious changes in appearance color, loss on drying, purity, relevant substances; for Appearance color / Loss on drying (%) / Purity (%) / Relevant substances: light 4500±500 Lx; for Loss on drying (%) / Purity (%) / Relevant substances: hydrochloride
Excerpt: Revaprazan hydrochloride crystalline form I is irradiated under such a condition that the light intensity is 4500±500 Lx, and is sampled on the 5th day and 10th day for detection, and the results are shown in Table 1. Revaprazan hydrochloride crystalline form II is irradiated under the condition that the light intensity is 4500±500Lx, and is sampled on the 5th day and 10th day for detection. Revaprazan hydrochloride polymorph III is irradiated under such a condition that the light intensity is 4500±500Lx, and is sampled on the 5th day and 10th day for detection. Revaprazan hydrochloride […] is irradiated under such a condition that the light intensity is 4500±500Lx, and is sampled on the 5th day and the 10th day for detection. Revaprazan hydrochloride crystalline form V is irradiated under the light intensity condition of 4500±500Lx; and is sampled on the 5th day and 10th day for detection.

[2] = High temperature test (60° C. incubator); conditions: for Appearance color / Loss on drying (%) / Purity (%) / Relevant substances: 60° C., hydrochloride; for Stability (conclusion in words): high temperature, no obvious changes in appearance color, loss on drying, purity, relevant substances
Procedure: Revaprazan hydrochloride crystalline form I is placed in a 60° C. incubator, and is sampled on the 5th day and 10th day for detection, and the results are shown in Table 2. Revaprazan hydrochloride crystalline form II is placed in a 60° C. incubator, and is sampled on the 5th day and 10th day for detection, and the results are shown in Table 6. Revaprazan hydrochloride polymorph III is placed in an incubator of 60° C., and is sampled on the 5th day and the 10th day for detection. Revaprazan hydrochloride crystalline form IV is placed in an incubator of 60° C., and is sampled on the 5th day and the 10th day for detection. Revaprazan hydrochloride crystal form 4 is placed in an incubator of 60° C.; and is sampled on the 5th day and the 10th day for detection, and the results are shown in Table 23.

[3] = High humidity test (25° C., relative humidity 75±5%); conditions: for Appearance color / Purity (%) / Relevant substances / Weight gain upon moisture absorption (%): 25° C., RH 75±5%; for Weight gain upon moisture absorption (in words): high humidity condition; for Stability (conclusion in words): high humidity, no obvious changes in appearance color, purity, relevant substances
Procedure: Revaprazan hydrochloride crystalline form I is placed in an incubator of 25° C. (relative humidity of 75±5%), and is sampled on the 5th day and 10th day for detection. Revaprazan hydrochloride crystalline form II is placed in an incubator of 25° C. (relative humidity of 75±5%), and is sampled on the 5th day and 10th day for detection. Revaprazan hydrochloride polymorph III is placed in an incubator of 25° C. (relative humidity of 75±5%), and is sampled on the 5th day and the 10th day for detection. Revaprazan hydrochloride crystalline form IV is placed in an incubator of 25° C. Revaprazan hydrochloride crystal form 4 is placed in an incubator of 25° C. (the relative humidity is 75±5%), and is sampled on the 5th day and the 10th day for detection.

[4] = Accelerated test (40±2° C., relative humidity 75±5%, 6 months, sealed polyethylene film bag); conditions: for Appearance color / Purity (%) / Relevant substances: 40±2° C., RH 75±5%; for Purity (%) / Relevant substances: hydrochloride; for Stability (conclusion in words): accelerated test, no obvious changes in appearance color, purity, relevant substances
Procedure: Revaprazan hydrochloride crystalline form I is sealed in a polyethylene film bag, is placed for 6 months under the conditions that the temperature is 40±2° C. and the relative humidity is 75±5%, and is respectively sampled at the end of the 1st Month, the 2nd Month, the 3rd Month and the 6^thMonth for detection; and the results are shown in Table 4. Revaprazan hydrochloride crystalline form II is sealed in a polyethylene film bag and is placed for 6 months under the conditions that the temperature is 40±2° C. and the relative humidity is 75±5%, and is respectively sampled at the end of the 1st Month, the 2nd Month, the 3rd Month and the 6th Month for detection; and the results are shown in Table 8. Revaprazan hydrochloride crystalline form III is sealed in a polyethylene film bag, is placed for 6 months under the conditions that the temperature is 40±2° C. and the relative humidity is 75±5%, and is sampled at the end of the 1st Month, the 2nd Month, the 3rd Month and the 6th Month for detection. Revaprazan hydrochloride crystalline form IV is sealed in a polyethylene film bag, is placed for 6 months under the conditions that the temperature is 40±2° C. and the relative humidity is 75±5%, and is sampled at the end of the 1st Month, the 2nd Month, the 3rd Month and the 6th Month for detection. Revaprazan hydrochloride crystalline form V is sealed in a polyethylene film bag and is placed for 6 months under the condition that the temperature is 40±2° C. and the relative humidity is 75±5%, and is sampled at the end of the 1st month, the 2nd month, the 3rd month and the 6th month for detection, and the results are shown in Table 20.

Cc1nc(Nc2ccc(F)cc2)nc(N2CCc3ccccc3C2C)c1C (single isomer, unassigned) [revaprazan hydrochloride crystalline form I]
Stability (conclusion in words) [1]: stable
Appearance color ([1]; 5th day): White powder
Loss on drying (%) ([1]; 5th day): 0.28%
Purity (%) ([1]; 5th day): 99.92%
Relevant substances ([1]; 5th day): Not detected
Appearance color ([1]; 10th day): White powder
Loss on drying (%) ([1]; 10th day): 0.30%
Purity (%) ([1]; 10th day): 99.94%
Relevant substances ([1]; 10th day): Not detected
Appearance color ([1]; Day 0): White powder
Loss on drying (%) ([1]; Day 0): 0.27%
Purity (%) ([1]; Day 0): 99.96%
Relevant substances ([1]; Day 0): Not detected
Appearance color ([2]; 5th day): White powder
Loss on drying (%) ([2]; 5th day): 0.23%
Purity (%) ([2]; 5th day): 99.95%
Relevant substances ([2]; 5th day): Not detected
Appearance color ([2]; 10th day): White powder
Loss on drying (%) ([2]; 10th day): 0.24%
Purity (%) ([2]; 10th day): 99.98%
Relevant substances ([2]; 10th day): Not detected
Appearance color ([2]; Day 0): White powder
Loss on drying (%) ([2]; Day 0): 0.21%
Purity (%) ([2]; Day 0): 99.96%
Relevant substances ([2]; Day 0): Not detected
Stability (conclusion in words) [2]: stable
Appearance color ([3]; 5th day): White powder
Purity (%) ([3]; 5th day, hydrochloride): 99.93%
Relevant substances ([3]; 5th day, hydrochloride): Not detected
Weight gain upon moisture absorption (%) ([3]; 5th day, hydrochloride): 0.42%
Appearance color ([3]; 10th day): White powder
Purity (%) ([3]; 10th day, hydrochloride): 99.95%
Relevant substances ([3]; 10th day, hydrochloride): Not detected
Weight gain upon moisture absorption (%) ([3]; 10th day, hydrochloride): 0.63%
Appearance color ([3]; Day 0): White powder
Weight gain upon moisture absorption (%) ([3]; Day 0): 0%
Purity (%) ([3]; Day 0, hydrochloride): 99.96%
Relevant substances ([3]; Day 0, hydrochloride): Not detected
Weight gain upon moisture absorption (in words) [3]: slight weight gain
Stability (conclusion in words) [3]: stable
Appearance color ([4]; 1st month): White powder
Purity (%) ([4]; 1st month): 99.97%
Relevant substances ([4]; 1st month): Not detected
Appearance color ([4]; 2nd month): White powder
Purity (%) ([4]; 2nd month): 99.92%
Relevant substances ([4]; 2nd month): Not detected
Appearance color ([4]; 3rd month): White powder
Purity (%) ([4]; 3rd month): 99.96%
Relevant substances ([4]; 3rd month): Not detected
Appearance color ([4]; 6th month): White powder
Purity (%) ([4]; 6th month): 99.95%
Relevant substances ([4]; 6th month): Not detected
Appearance color ([4]; Month 0): White powder
Purity (%) ([4]; Month 0): 99.96%
Relevant substances ([4]; Month 0): Not detected
Stability (conclusion in words) [4]: stable

Cc1nc(Nc2ccc(F)cc2)nc(N2CCc3ccccc3C2C)c1C (single isomer, unassigned) [revaprazan hydrochloride crystalline form IV]
Stability (conclusion in words) [1]: stable
Appearance color ([1]; 5th day): White powder
Loss on drying (%) ([1]; 5th day): 0.29%
Purity (%) ([1]; 5th day): 99.95%
Relevant substances ([1]; 5th day): Undetected
Appearance color ([1]; 10th day): White powder
Loss on drying (%) ([1]; 10th day): 0.31%
Purity (%) ([1]; 10th day): 99.92%
Relevant substances ([1]; 10th day): Undetected
Appearance color ([1]; Day 0): White powder
Loss on drying (%) ([1]; Day 0): 0.27%
Purity (%) ([1]; Day 0): 99.93%
Relevant substances ([1]; Day 0): Undetected
Appearance color ([2]; 5th day): White powder
Loss on drying (%) ([2]; 5th day): 0.27%
Purity (%) ([2]; 5th day): 99.91%
Relevant substances ([2]; 5th day): Undetected
Appearance color ([2]; 10th day): White powder
Loss on drying (%) ([2]; 10th day): 0.27%
Purity (%) ([2]; 10th day): 99.92%
Relevant substances ([2]; 10th day): Undetected
Appearance color ([2]; Day 0): White powder
Loss on drying (%) ([2]; Day 0): 0.25%
Purity (%) ([2]; Day 0): 99.93%
Relevant substances ([2]; Day 0): Undetected
Stability (conclusion in words) [2]: stable
Appearance color ([3]; 5th day): White powder
Purity (%) ([3]; 5th day, hydrochloride): 99.96%
Weight gain upon moisture absorption (%) ([3]; 5th day, hydrochloride): 0.44%
Appearance color ([3]; 10th day): White powder
Purity (%) ([3]; 10th day, hydrochloride): 99.93%
Weight gain upon moisture absorption (%) ([3]; 10th day, hydrochloride): 0.62%
Appearance color ([3]; Day 0): White powder
Weight gain upon moisture absorption (%) ([3]; Day 0): 0%
Purity (%) ([3]; Day 0, hydrochloride): 99.93%
Weight gain upon moisture absorption (in words) [3]: slight weight gain
Stability (conclusion in words) [3]: stable
Appearance color ([4]; 1st month): White powder
Purity (%) ([4]; 1st month): 99.91%
Relevant substances ([4]; 1st month): Undetected
Appearance color ([4]; 2nd month): White powder
Purity (%) ([4]; 2nd month): 99.90%
Relevant substances ([4]; 2nd month): Undetected
Appearance color ([4]; 3rd month): White powder
Purity (%) ([4]; 3rd month): 99.95%
Relevant substances ([4]; 3rd month): Undetected
Appearance color ([4]; 6th month): White powder
Purity (%) ([4]; 6th month): 99.94%
Relevant substances ([4]; 6th month): Undetected
Appearance color ([4]; Month 0): White powder
Purity (%) ([4]; Month 0): 99.93%
Relevant substances ([4]; Month 0): Undetected
Stability (conclusion in words) [4]: stable
